Experimental data published in patent US20170073337A1, “DIHYDROTHIAZINE AND DIHYDROOXAZINE DERIVATIVES HAVING BACE1 INHIBITORY ACTIVITY” (Shionogi & Co., Ltd., priority 2014, published 2017).

Assays:
[1] = target: T1, Recombinant human BACE1 (Homo sapiens, UniProt P56817); experiment: Assay of BACE1 inhibitory activity: 96-well; assay type: biochemical; conditions: Assay format 96-well
T1 construct: purchased R&D Systems

[2] = Brain distribution studies; assay type: in vivo; conditions: rat, brain / plasma, iv, 0.5 mg/mL/kg, 30 minutes later, area ratio brain/plasma
Description: Compound of the present invention was intravenously administered to a rat at 0.5 mg/mL/kg dosage. 30 minutes later, all blood was drawn from the abdominal aorta under isoflurane anesthesia for death from exsanguination. […] The obtained blood was used as plasma after centrifuging. The control plasma was added to the brain sample at 1:1. The control brain homogenate was added to the plasma sample at 1:1. Each sample was measured using LC/MS/MS. The obtained area ratio (a brain/plasma) was used for the brain Kp value.

[3] = target: T2, CYP2C9 (Homo sapiens, UniProt P11712); experiment: CYP inhibition test (CYP2C9); assay type: in vitro ADME; conditions: pooled human liver microsomes; tolbutamide methyl-hydroxylation
T2 construct: The commercially available pooled human liver microsomes are used as an enzyme resource; from tissue; host or cells: pooled human liver microsomes
T2 sequence (P11712 whole entry): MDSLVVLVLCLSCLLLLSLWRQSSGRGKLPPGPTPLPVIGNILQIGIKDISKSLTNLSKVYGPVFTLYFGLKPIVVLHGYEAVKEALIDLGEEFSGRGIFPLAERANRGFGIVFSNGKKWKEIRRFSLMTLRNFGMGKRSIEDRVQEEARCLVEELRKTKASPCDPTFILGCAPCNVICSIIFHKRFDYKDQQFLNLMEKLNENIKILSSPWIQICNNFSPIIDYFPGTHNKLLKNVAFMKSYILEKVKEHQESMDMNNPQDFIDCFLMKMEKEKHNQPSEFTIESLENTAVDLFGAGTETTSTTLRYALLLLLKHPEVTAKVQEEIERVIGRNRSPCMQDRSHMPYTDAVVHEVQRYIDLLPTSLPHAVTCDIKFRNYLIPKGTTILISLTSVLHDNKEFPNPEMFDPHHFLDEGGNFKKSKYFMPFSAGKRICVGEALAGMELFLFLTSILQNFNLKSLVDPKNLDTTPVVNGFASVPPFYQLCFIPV
Summary of the method: (§1)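 Metabolite formation was quantified by LC/MS/MS: dextrorphan (2D6, 5 μmol/L dextromethorphan), terfenadine alcohol (3A4, 1 μmol/L terfenadine), 4′-hydroxymephenytoin (2C19, 50 μmol/L S-mephenytoin) and hydroxytolbutamide (2C9, 100 μmol/L tolbutamide). Reactions used NADPH-started pooled human liver microsomes (0.2 mg/mL) at 37 °C with compound at 1–20 μmol/L (four points). IC50 was calculated by logistic model relative to the DMSO control.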

[4] = target: T3, CYP2D6 (Homo sapiens, UniProt P10635); experiment: CYP inhibition test (CYP2D6); assay type: in vitro ADME; conditions: pooled human liver microsomes; dextromethorphan O-demethylation
T3 construct: The commercially available pooled human liver microsomes are used as an enzyme resource; from tissue; host or cells: pooled human liver microsomes
T3 sequence (P10635 whole entry): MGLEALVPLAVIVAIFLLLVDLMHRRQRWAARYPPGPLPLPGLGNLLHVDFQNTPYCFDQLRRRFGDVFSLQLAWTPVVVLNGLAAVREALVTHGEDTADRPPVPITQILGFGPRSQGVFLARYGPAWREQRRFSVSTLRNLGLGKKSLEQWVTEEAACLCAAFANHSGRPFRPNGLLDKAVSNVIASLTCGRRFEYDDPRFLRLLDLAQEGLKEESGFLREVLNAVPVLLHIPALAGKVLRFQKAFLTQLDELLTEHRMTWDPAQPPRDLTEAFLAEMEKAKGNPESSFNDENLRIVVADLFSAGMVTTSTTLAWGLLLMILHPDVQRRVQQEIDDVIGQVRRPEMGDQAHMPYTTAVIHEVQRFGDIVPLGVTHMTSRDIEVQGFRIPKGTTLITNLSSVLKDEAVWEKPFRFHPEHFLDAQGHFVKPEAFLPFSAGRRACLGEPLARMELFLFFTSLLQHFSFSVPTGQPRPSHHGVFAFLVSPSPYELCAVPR
Summary of the method: as §1

T1 sequence (P56817 46-501): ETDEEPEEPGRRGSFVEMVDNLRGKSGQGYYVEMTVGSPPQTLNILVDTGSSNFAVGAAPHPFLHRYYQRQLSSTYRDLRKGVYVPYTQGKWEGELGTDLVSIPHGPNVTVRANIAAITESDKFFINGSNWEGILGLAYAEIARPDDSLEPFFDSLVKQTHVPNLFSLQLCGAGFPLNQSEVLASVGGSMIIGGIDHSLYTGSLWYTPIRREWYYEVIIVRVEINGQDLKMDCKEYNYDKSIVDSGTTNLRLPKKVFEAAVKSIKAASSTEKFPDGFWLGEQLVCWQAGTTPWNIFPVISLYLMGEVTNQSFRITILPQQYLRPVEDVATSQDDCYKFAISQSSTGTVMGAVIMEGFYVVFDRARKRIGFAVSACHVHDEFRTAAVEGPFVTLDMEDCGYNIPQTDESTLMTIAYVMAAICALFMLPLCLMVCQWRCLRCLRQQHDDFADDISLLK

Compound | IC50 [1] | Kp at 0.5 h [2] | IC50 [3] | IC50 [4]
C[C@]1(c2cc(NC(=O)c3cnc(OCF)cn3)ccc2F)N=C(N)O[C@H](CF)[C@@H]1OCC(F)(F)F [Compound I-12] | 56.8 nM | 1 | ≥ 20 µM | ≥ 10 µM
C[C@]1(c2cc(NC(=O)c3ccc(C#N)cn3)ccc2F)N=C(N)O[C@H](CF)[C@@H]1OCC(F)(F)F [Compound I-10] | 25.8 nM | 1.1 | ≥ 20 µM | ≥ 20 µM
C[C@]1(c2nc(NC(=O)c3ccc(C#N)cn3)ccc2F)N=C(N)S[C@H](CF)[C@@H]1F [Compound I-4] | 11.5 nM | 2 | ≥ 10 µM | ≥ 20 µM
C[C@H]1SC(N)=N[C@](C)(c2nc(NC(=O)c3cnc(OCF)cn3)ccc2F)[C@H]1F [Compound I-3] | 61.3 nM | 2.3 | ≥ 10 µM | 
C[C@H]1SC(N)=N[C@](C)(c2nc(NC(=O)c3ccc(C#N)cn3)ccc2F)[C@H]1F [Compound I-1] | 13.3 nM | 2 | ≥ 20 µM | ≥ 20 µM

Further lines, results first:

IC50 [1] | Kp at 0.5 h [2] | IC50 [3] | IC50 [4] | Compound
15.2 nM | 0.79 | ≥ 20 µM | ≥ 20 µM | C[C@@H](F)[C@H]1OC(N)=N[C@](C)(c2cc(NC(=O)c3ccc(C#N)cn3)ccc2F)[C@H]1F [Compound I-15]
32 nM | 0.56 | ≥ 20 µM | ≥ 20 µM | C[C@H](F)[C@H]1OC(N)=N[C@](C)(c2cc(NC(=O)c3ccc(C#N)cn3)ccc2F)[C@H]1F [Compound I-13]
